Laboratory results from PubChem BioAssay AID2060612 (Molecular Pharmacology Branch, DTP, NCI, 2025).
Values joined by “and” are separate entries in the source; they are usually repeats but may differ in a detail not shown here. Equal entries are not always repeated.

Test system: 565232-114-T-J1-PDC complex spheroid viability
Experiment: Anticancer human tumor 565232-114-T-J1-PDC patient-derived bladder carcinoma cell line growth inhibition [CLK]
Conditions: for viability, T/C: stronger effect = lower value
How it was run: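 Patient-derived tumor cells grown as complex spheroids with HUVEC endothelial cells and mesenchymal stem cells, treated with drug combinations. Concentrations descend in half-log steps from near clinical Cmax, or from 10 microM if Cmax unknown.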

[1] = curve of first compound, second compound 0.0316 µM
[2] = curve of first compound, second compound 0.1 µM
[3] = curve of first compound, second compound 0.316 µM
[4] = curve of first compound, second compound 1 µM
[5] = curve of first compound, second compound 3.16 µM
[6] = curve of first compound, second compound 10 µM
[7] = second compound 0.0316 µM, first compound 0.00949 µM
[8] = second compound 0.0316 µM, first compound 0.03 µM
[9] = second compound 0.0316 µM, first compound 0.0949 µM
[10] = second compound 0.0316 µM, first compound 0.3 µM
[11] = second compound 0.1 µM, first compound 0.00949 µM
[12] = second compound 0.1 µM, first compound 0.03 µM
[13] = second compound 0.1 µM, first compound 0.0949 µM
[14] = second compound 0.1 µM, first compound 0.3 µM
[15] = second compound 0.316 µM, first compound 0.00949 µM
[16] = second compound 0.316 µM, first compound 0.03 µM
[17] = second compound 0.316 µM, first compound 0.0949 µM
[18] = second compound 0.316 µM, first compound 0.3 µM
[19] = second compound 1 µM, first compound 0.00949 µM
[20] = second compound 1 µM, first compound 0.03 µM
[21] = second compound 1 µM, first compound 0.0949 µM
[22] = second compound 1 µM, first compound 0.3 µM
[23] = second compound 3.16 µM, first compound 0.00949 µM
[24] = second compound 3.16 µM, first compound 0.03 µM
[25] = second compound 3.16 µM, first compound 0.0949 µM
[26] = second compound 3.16 µM, first compound 0.3 µM
[27] = second compound 10 µM, first compound 0.00949 µM
[28] = second compound 10 µM, first compound 0.03 µM
[29] = second compound 10 µM, first compound 0.0949 µM
[30] = second compound 10 µM, first compound 0.3 µM
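Also: spheroids exposed to compounds for 7 days before readout.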
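For viability, T/C in this document: 100% = DMSO vehicle wells with luminescence normalized to vehicle control.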

NC(=O)C(=Cn1cnc(-c2cc(C(F)(F)F)cc(C(F)(F)F)c2)n1)c1cncnc1 + CN1CCN(c2cc(C(=O)Nc3cc4cc(-c5cnn(C)c5)ccc4cn3)ccn2)CC1 was tested, and the IC50 [1] was 384 nM, the IC50 [2] was 190 nM and the IC50 [3] was under 9.49 nM. It also gave an IC50 [4] of under 9.49 nM, an IC50 [5] of under 9.49 nM and an IC50 [6] of under 9.49 nM. For the same compound, the viability, T/C [7] was 110%, the viability, T/C [8] was 79.4% and the viability, T/C [9] was 116%. It also gave a viability, T/C [10] of 63%, a viability, T/C (second compound 0.0316 µM, first compound 0.949 µM) of 2.12% and a viability, T/C (second compound 0.0316 µM, first compound 3 µM) of 2.86%. For the same compound, the viability, T/C [11] was 112%, the viability, T/C [12] was 89.6% and the viability, T/C [13] was 69.7%. The viability, T/C [14] was 44.2%, the viability, T/C (second compound 0.1 µM, first compound 0.949 µM) was 1.42% and the viability, T/C (second compound 0.1 µM, first compound 3 µM) was 0.17%. For the same compound, the viability, T/C [15] was 11.2%, the viability, T/C [16] was 19.1% and the viability, T/C [17] was 4.82%. For the same compound, the viability, T/C [18] was 0.31%, the viability, T/C (second compound 0.316 µM, first compound 0.949 µM) was 0.21% and the viability, T/C (second compound 0.316 µM, first compound 3 µM) was 0.15%. For the same compound, the viability, T/C [19] was 0.13%, the viability, T/C [20] was 1.42% and the viability, T/C [21] was 0.31%. The viability, T/C [22] was 0.24%, the viability, T/C (second compound 1 µM, first compound 0.949 µM) was 0.19% and the viability, T/C (second compound 1 µM, first compound 3 µM) was 0.08%. The viability, T/C [23] was 0.19%, the viability, T/C [24] was 0.22% and the viability, T/C [25] was 3.11%. For the same compound, the viability, T/C [26] was 0.24%, the viability, T/C (second compound 3.16 µM, first compound 0.949 µM) was 1.65% and the viability, T/C (second compound 3.16 µM, first compound 3 µM) was 0.16%. It also gave a viability, T/C [27] of 0.14%, a viability, T/C [28] of 0.12% and a viability, T/C [29] of 1.13%. The viability, T/C [30] was 0.76%, the viability, T/C (second compound 10 µM, first compound 0.949 µM) was 0.21% and the viability, T/C (second compound 10 µM, first compound 3 µM) was 0.37%.

CC(C)CC(NC(=O)C(Cc1ccccc1)NC(=O)c1cnccn1)B(O)O (stereo not drawn) + CN1CCN(c2cc(C(=O)Nc3cc4cc(-c5cnn(C)c5)ccc4cn3)ccn2)CC1 gave an IC50 [1] of 5.73 nM, an IC50 [2] of 6.17 nM and an IC50 [3] of under 0.949 nM. For the same compound, the IC50 [4] was under 0.949 nM, the IC50 [5] was under 0.949 nM and the IC50 [6] was under 0.949 nM. For the same compound, the viability, T/C (second compound 0.0316 µM, first compound 0.000949 µM) was 120%, the viability, T/C (second compound 0.0316 µM, first compound 0.003 µM) was 109% and the viability, T/C [7] was 4.38%. For the same compound, the viability, T/C [8] was 1.43%, the viability, T/C [9] was 1.54% and the viability, T/C [10] was 1.27%. For the same compound, the viability, T/C (second compound 0.1 µM, first compound 0.000949 µM) was 129%, the viability, T/C (second compound 0.1 µM, first compound 0.003 µM) was 133% and the viability, T/C [11] was 2.13%. For the same compound, the viability, T/C [12] was 1.8%, the viability, T/C [13] was 1.71% and the viability, T/C [14] was 1.6%. For the same compound, the viability, T/C (second compound 0.316 µM, first compound 0.000949 µM) was 23.8%, the viability, T/C (second compound 0.316 µM, first compound 0.003 µM) was 25.9% and the viability, T/C [15] was 3.56%. The viability, T/C [16] was 1.36%, the viability, T/C [17] was 1.26% and the viability, T/C [18] was 0.65%. For the same compound, the viability, T/C (second compound 1 µM, first compound 0.000949 µM) was 0.22%, the viability, T/C (second compound 1 µM, first compound 0.003 µM) was 3% and the viability, T/C [19] was 1.91%. The viability, T/C [20] was 0.18%, the viability, T/C [21] was 2.19% and the viability, T/C [22] was 2.68%. It also gave a viability, T/C (second compound 3.16 µM, first compound 0.000949 µM) of 0.16%, a viability, T/C (second compound 3.16 µM, first compound 0.003 µM) of 1.18% and a viability, T/C [23] of 0.21%. It also gave a viability, T/C [24] of 0.14%, a viability, T/C [25] of 0.16% and a viability, T/C [26] of 1.81%. For the same compound, the viability, T/C (second compound 10 µM, first compound 0.000949 µM) was 0.1%, the viability, T/C (second compound 10 µM, first compound 0.003 µM) was 3.27% and the viability, T/C [27] was 3.03%. The viability, T/C [28] was 0.17%, the viability, T/C [29] was 1.45% and the viability, T/C [30] was 0.23%.

In the case of O=c1[nH]cc(F)c(=O)[nH]1, the viability, T/C (compound 0.0316 µM) is reported as 91.2% and 106%, the viability, T/C (compound 0.1 µM) is reported as 80.1% and 80.5% and the viability, T/C (compound 0.316 µM) is reported as 80.7% and 124%. The viability, T/C (compound 1 µM) was 88.1% and 93.1%, the viability, T/C (compound 3.16 µM) was 134% and 80.6% and the viability, T/C (compound 10 µM) was 131% and 71.9%. The IC50 (curve of compound) was over 10000 nM.

Cn1ncnc1[C@H]1c2n[nH]c(=O)c3cc(F)cc(c23)N[C@@H]1c1ccc(F)cc1 was tested, and the viability, T/C (compound 0.000316 µM) was 93.9% and 110%, the viability, T/C (compound 0.001 µM) was 72.5% and 92.8% and the viability, T/C (compound 0.00316 µM) was 77.5% and 109%. The viability, T/C (compound 0.01 µM) was 109% and 97.4%, the viability, T/C (compound 0.0316 µM) was 104% and 99.3% and the viability, T/C (compound 0.1 µM) was 105% and 37%. The IC50 (curve of compound) was > 100 nM and 78.6 nM.
